Legend:
[1] = Radiometal complex stability (PBS, EDTA challenge, human serum), ITLC; details: 1 h at 37 °C, n = 3
Protocol: The radiochemical stability to transchelation was assessed by incubation of the radiolabeled peptide either with 1000× molar excess of EDTA or by incubation in human serum for 1 h at 37 °C. Incubation of radiolabeled peptide in PBS was used as control. The leakage of radiometal from the radiometal-chelate was determined with ITLC.

[2] = Biodistribution in mice bearing PC-3 tumors; details: Balb/c nu/nu, mouse, iv, total radioactivity, n = 4; for tissue uptake at 1 h: 1 h pi; for tissue uptake at 4 h: 4 h pi; for tissue uptake at 24 h: 24 h pi
Protocol: (§1) Biodistribution was conducted in Balb/c nu/nu mice (Scanbur A/S, Stockholm, Sweden), implanted subcutaneously in their flanks with PC-3 cells (6 × 10^6 cells/mouse) 3–4 weeks before the study. […] Biodistributions were conducted at 1 h pi for both control groups.

[3] = tested on: PC-3 tumors (GRPR-positive); assay: Biodistribution in mice bearing PC-3 tumors; details: 1 h pi, n = 4
Protocol: as §1

[4] = Biodistribution in negative control mice bearing DU-145 tumors; format: in vivo; details: Balb/c nu/nu, mouse, iv, 40 pmol, total radioactivity, 1 h pi, n = 4
Protocol: as §1

[5] = In vivo metabolic stability in peripheral mice blood, HPLC; details: 5 min pi
Protocol: (§2) Pills were ground to a fine powder in a mortar, divided, and suspended in tab water to individual 12 mg/200 mL doses of pill per animal administered per os (Entresto® group) [35].
(§3) The in vivo stability was determined in healthy male Swiss albino mice (12 mice in total, body weights 30 ± 5 g). Briefly, each radiolabeled peptide was injected as a bolus (100 μL, 11–22 MBq, 3 nmol of total peptide in saline/EtOH 9/1 v/v) in the tail vein of mice either untreated (controls) or 20 min after having received per os a slurry of an Entresto® pill (individual 12 mg/200 mL doses of pill per animal; Entresto®-group; Novartis, Basel, Switzerland), as previously described [34, 35]. Blood was collected 5 min post-injection (pi) in a chilled syringe directly from the heart (0.5–1 mL) and samples were processed prior to being analyzed by HPLC for the detection of forming radiometabolites, as previously described [25, 35]. For analyses, an XBridge Shield RP18 (5 μm, 4.6 mm × 20 mm) column (Waters, Vienna, Austria) was eluted at a flow rate of 1 mL/min with 0.1% TFA in H2O (A) and MeCN (B) with the following linear gradient system: 100%A/0%B at 0 min, with B linearly increasing by 1%/min to 60%A/40%B (system 2).

in vivo = details: Balb/c nu/nu, mouse, iv, 40 pmol, total radioactivity
Protocol: as §1

[6] = mouse, in vivo
Protocol: as §2, §3

[7] = PC-3 tumor, 40 pmol, Tumor (PC-3) uptake
[8] = kidneys, 40 pmol, Kidneys uptake
[9] = pancreas, 40 pmol, Pancreas uptake
[10] = small intestine, 40 pmol, Small intestine uptake

CC(C)C[C@H](NC(=O)C[C@H](O)[C@H](CC(C)C)NC(=O)[C@H](Cc1c[nH]cn1)NC(=O)CN(C)C(=O)[C@@H](NC(=O)[C@H](C)NC(=O)[C@H](Cc1c[nH]c2ccccc12)NC(=O)[C@H](CCC(N)=O)NC(=O)[C@@H](Cc1ccccc1)NC(=O)COCCOCCNC(=O)CCC(C(=O)O)N1CCN(CC(=O)O)CCN(CC(=O)O)CCN(CC(=O)O)CC1)C(C)C)C(N)=O (mixture of isomers) [[^111In]In-AU-RM26-M1, [^111In]In-DOTAGA-PEG2-(Sar^11)RM26, metal not drawn]
Radiochemical stability, % protein-associated activity, EDTA ([1]; 1000× molar excess of EDTA): 98.7 ± 0.3% | Radiochemical stability, % protein-associated activity, PBS ([1]; PBS control): 100.0 ± 0.3% | Radiochemical stability, % protein-associated activity, Serum ([1]; human serum): 99.2 ± 0.3% | tissue uptake at 1 h [2, 7]: 7 ± 0.7 %ID/g | tissue uptake at 4 h [2, 7]: 5.7 ± 1.8 %ID/g | tissue uptake at 24 h [2, 7]: 1.8 ± 0.6 %ID/g | tissue uptake at 1 h ([2]; PC-3 tumor, with unlabeled NOTA-PEG2-RM26, 5 nmol (in vivo GRPR blocking), PC-3 tumor uptake, GRPR-blocking group, excess unlabeled NOTA-PEG2-RM26 (5 nmol)): 0.9 ± 0.6 %ID/g | tissue uptake at 1 h ([2]; blood, 40 pmol, Blood uptake): 0.6 ± 0.1 %ID/g | tissue uptake at 4 h ([2]; blood, 40 pmol, Blood uptake): 0.11 ± 0.07 %ID/g | tissue uptake at 24 h ([2]; blood, 40 pmol, Blood uptake): 0.02 ± 0.01 %ID/g | tissue uptake at 1 h ([2]; bone, 40 pmol, Bone uptake): 0.17 ± 0.09 %ID/g | tissue uptake at 4 h ([2]; bone, 40 pmol, Bone uptake): 0.09 ± 0.03 %ID/g | tissue uptake at 24 h ([2]; bone, 40 pmol, Bone uptake): 0.06 ± 0.03 %ID/g | tissue uptake at 1 h [2, 8]: 7.2 ± 0.9 %ID/g | tissue uptake at 4 h [2, 8]: 6 ± 1 %ID/g | tissue uptake at 24 h [2, 8]: 3 ± 0.9 %ID/g | tissue uptake at 1 h ([2]; liver, 40 pmol, Liver uptake): 0.55 ± 0.04 %ID/g | tissue uptake at 4 h ([2]; liver, 40 pmol, Liver uptake): 0.24 ± 0.02 %ID/g | tissue uptake at 24 h ([2]; liver, 40 pmol, Liver uptake): 0.1 ± 0.03 %ID/g | tissue uptake at 1 h ([2]; lungs, 40 pmol, Lungs uptake): 0.46 ± 0.09 %ID/g | tissue uptake at 4 h ([2]; lungs, 40 pmol, Lungs uptake): 0.17 ± 0.06 %ID/g | tissue uptake at 24 h ([2]; lungs, 40 pmol, Lungs uptake): 0.03 ± 0.03 %ID/g | tissue uptake at 1 h ([2]; muscle, 40 pmol, Muscle uptake): 0.15 ± 0.08 %ID/g | tissue uptake at 4 h ([2]; muscle, 40 pmol, Muscle uptake): 0.13 ± 0.05 %ID/g | tissue uptake at 24 h ([2]; muscle, 40 pmol, Muscle uptake): 0.01 ± 0.01 %ID/g | tissue uptake at 1 h [2, 9]: 2.2 ± 0.6 %ID/g | tissue uptake at 4 h [2, 9]: 0.29 ± 0.02 %ID/g | tissue uptake at 24 h [2, 9]: 0.03 ± 0.01 %ID/g | tissue uptake at 1 h ([2]; pancreas, with unlabeled NOTA-PEG2-RM26, 5 nmol (in vivo GRPR blocking), pancreas uptake, blocked group, excess unlabeled NOTA-PEG2-RM26 (5 nmol)): 0.3 ± 0.2 %ID/g | tissue uptake at 1 h [2, 10]: 1.1 ± 0.6 %ID/g | tissue uptake at 4 h [2, 10]: 0.3 ± 0.2 %ID/g | tissue uptake at 24 h [2, 10]: 0.03 ± 0.01 %ID/g | tissue uptake at 1 h ([2]; spleen, 40 pmol, Spleen uptake): 0.3 ± 0.2 %ID/g | tissue uptake at 4 h ([2]; spleen, 40 pmol, Spleen uptake): 0.22 ± 0.07 %ID/g | tissue uptake at 24 h ([2]; spleen, 40 pmol, Spleen uptake): 0.1 ± 0.03 %ID/g | Pancreas uptake [3]: 2.23 ± 0.56 %IA/g | tissue uptake at 1 h ([4]; DU-145 tumor, read-out: uptake in DU-145 tumors (GRPR-negative)): 0.9 ± 0.2 %ID/g | tissue uptake at 1 h ([4]; pancreas, DU-145 tumor-bearing mice, read-out: pancreas uptake, negative control group): 2.2 ± 0.7 %ID/g | % intact radioligand in peripheral mice blood ([5]; Entresto-treated group (NEP inhibition, per os)): 91 ± 2% | % intact radioligand in peripheral mice blood ([5]; control (untreated) mice): 88 ± 8%

CC(C)C[C@H](NC(=O)C[C@H](O)[C@H](CC(C)C)NC(=O)[C@H](Cc1c[nH]cn1)NC(=O)CNC(=O)[C@@H](NC(=O)[C@H](C)NC(=O)[C@H](Cc1c[nH]c2ccccc12)NC(=O)[C@H](CCC(N)=O)NC(=O)[C@@H](Cc1ccccc1)NC(=O)COCCOCCNC(=O)CCC(C(=O)O)N1CCN(CC(=O)O)CCN(CC(=O)O)CCN(CC(=O)O)CC1)C(C)C)C(N)=O (mixture of isomers) [[^111In]In-DOTAGA-PEG2-RM26, metal not drawn]
tissue uptake at 1 h (in vivo; Blood uptake): 0.5 ± 0.3 %ID/g | tissue uptake at 4 h (in vivo; Blood uptake): 0.07 ± 0.01 %ID/g | tissue uptake at 24 h (in vivo; Blood uptake): 0.015 ± 0.003 %ID/g | tissue uptake at 1 h (in vivo; Bone uptake): 0.13 ± 0.08 %ID/g | tissue uptake at 4 h (in vivo; Bone uptake): 0.07 ± 0.04 %ID/g | tissue uptake at 24 h (in vivo; Bone uptake): 0.04 ± 0.03 %ID/g | tissue uptake at 1 h (in vivo; Kidneys uptake): 4.6 ± 0.9 %ID/g | tissue uptake at 4 h (in vivo; Kidneys uptake): 3.5 ± 0.7 %ID/g | tissue uptake at 24 h (in vivo; Kidneys uptake): 2 ± 0.5 %ID/g | tissue uptake at 1 h (in vivo; Liver uptake): 0.5 ± 0.1 %ID/g | tissue uptake at 4 h (in vivo; Liver uptake): 0.23 ± 0.05 %ID/g | tissue uptake at 24 h (in vivo; Liver uptake): 0.16 ± 0.02 %ID/g | tissue uptake at 1 h (in vivo; Lungs uptake): 0.5 ± 0.2 %ID/g | tissue uptake at 4 h (in vivo; Lungs uptake): 0.11 ± 0.02 %ID/g | tissue uptake at 24 h (in vivo; Lungs uptake): 0.04 ± 0.01 %ID/g | tissue uptake at 1 h (in vivo; Muscle uptake): 0.11 ± 0.08 %ID/g | tissue uptake at 4 h (in vivo; Muscle uptake): 0.04 ± 0.01 %ID/g | tissue uptake at 24 h (in vivo; Muscle uptake): 0.01 ± 0.01 %ID/g | tissue uptake at 1 h (in vivo; Pancreas uptake): 1.9 ± 1 %ID/g | tissue uptake at 4 h (in vivo; Pancreas uptake): 0.18 ± 0.04 %ID/g | tissue uptake at 24 h (in vivo; Pancreas uptake): 0.03 ± 0.01 %ID/g | tissue uptake at 1 h (in vivo; Small intestine uptake): 0.8 ± 0.2 %ID/g | tissue uptake at 4 h (in vivo; Small intestine uptake): 0.13 ± 0.04 %ID/g | tissue uptake at 24 h (in vivo; Small intestine uptake): 0.05 ± 0.05 %ID/g | tissue uptake at 1 h (in vivo; Spleen uptake): 0.21 ± 0.06 %ID/g | tissue uptake at 4 h (in vivo; Spleen uptake): 0.1 ± 0.02 %ID/g | tissue uptake at 24 h (in vivo; Spleen uptake): 0.1 ± 0.03 %ID/g | tissue uptake at 1 h (in vivo; Tumor (PC-3) uptake): 6 ± 0.4 %ID/g | tissue uptake at 4 h (in vivo; Tumor (PC-3) uptake): 3 ± 1 %ID/g | tissue uptake at 24 h (in vivo; Tumor (PC-3) uptake): 1.2 ± 0.4 %ID/g | % degraded in peripheral mice blood [6]: about 30%
